In patent US8642834B2, “Methods for the identification of agents that inhibit mesenchymal-like tumor cells or their formation” (OSI Pharmaceuticals, LLC, priority 2009, dated 2014):

What was measured:
Type in all cases: cell-based, human
[1] = tested on: CFPAC1 cells; assay: Doubling time after ligand treatment; conditions: after 7 day ligand treatment, versus untreated
Protocol: Cells were plated and treated with ligand for 7 days. On day 7, cells were counted and re-plated on 6 cm cell culture dishes. On days 3, 5, 7, 10 and 12, cells were trypsinized and counted to determine the total number of cells in the dish, in duplicate. Doubling time was calculated using the multiple time point method on the website www.doubling-time.com.

[2] = tested on: CFPAC-1 cells; assay: Induction of EMT by growth factors and cytokines, E-cadherin and vimentin immunoblotting; conditions: CFPAC-1 cells treated 7 days with ligand
Protocol: The CFPAC1 cell line was cultured in DMEM media (Gibco #11960) supplemented with 10% FBS (Sigma), 2 mM L Glutamine (Gibco), at 37° C., 5% CO2. For 7 day treatments, cells were seeded on tissue culture plastic in complete growth media and allowed to attach overnight at cell densities that would provide approximately 60-80% confluence at end of experiment. Ligand and/or inhibitor was added the following day (Day 0) in complete growth media and incubated at 37° C., 5% CO2. Ligand source and concentrations used are as follows: [1] From R&D systems, SDF-1α (stromal derived factor-1 alpha) at 100 ng/ml, TRANCE (TNF-related activation induced cytokine) at 50 ng/ml, FGF1 (fibroblast growth factor acidic) at 10 ng/ml, FGF2 (fibroblast growth factor basic) at 10 ng/ml, BMP4 (bone morphogenetic protein 4) at 100 ng/ml, BMP7 (bone morphogenetic protein 7) at 100 ng/ml, IGF2 (insulin-like growth factor 2) at 100 ng/ml, OSM (Oncostatin M) at 100 ng/ml, NRG1 (Neuregulin-1) at 50 ng/ml, PDGFaa (Platelet derived growth factor a) at 50 ng/ml, PDGFbb (platelet derive growth factor b) at 30 ng/ml, Ang2 (Angiopoeitin 2) at 400 ng/ml, amphiregulin at 100 ng/ml, HMGB 1 (Human high-mobility group box 1 protein) at 50 ng/ml; [2] From Genscript, LIF (Leukemia inhibitory factor) at 20 ng/ml, GM-CSF (Granulocyte macrophage colony stimulating factor) at 25 ng/ml, M-CSF (Macrophage colony stimulating factor) at 50 ng/ml; [3] From Anaspec, PAR1 (Protease activated receptor 1 agonist) at 100 μM; PAR2 (Protease activated receptor 2 agonist; peptide SLIGKV-NH2, Cat. No. 60217-1) at 100 μM; PAR4 (Protease activated receptor […] agonist; peptide AYPGKF-NH2, Cat. No. 60218-1) at 100 μM; [4] From Peprotech, HGF (Hepatocyte Growth Factor) at 100 ng/ml; IL-31 (Interleukin-31) at 50 ng/ml, IL-33 (Interleukin-33) at 50 ng/ml, IL1-a (Interleukin-1 alpha) at 10 ng/ml, CTGF (Connective tissue growth factor) at 20 ng/ml, WISP1 (Wnt-1 inducible signaling pathway protein) at 20 ng/ml, PTHrP ([…] hormone-related protein) at 50 ng/ml, MCP1 (monocyte chemotactic protein-1) at 50 ng/ml; and [5] from Sigma, Fulvestrant at 1 μM. Fresh medium containing ligand and/or inhibitor was added 3-4 days after initial dose, and at Day 7 cells were harvested for western blot analysis.
Cells were harvested by washing once with PBS, and lysing on ice for 10 minutes with scraping (using a Cell Lifter, Corning Inc. #3008) in ice cold RIPA buffer (Sigma R0278) containing Protease inhibitor (Sigma P8340), Phosphatase inhibitors (Sigma P2850, P5726) and 200 μM Sodium Vanadate. Supernatents were micro-centrifuged at max speed, 4° C. for 10 minutes. Protein content was quantitated using the BCA method (Pierce #23225) and samples were normalized to total protein in Laemli buffer and heated at 100° C. for 10 minutes. SDS PAGE was run using a Bis-Tris gel system (Invitrogen NuPAGE) with MOPS buffer (Invitrogen NP0001), transferred onto nitrocellulose using the iBLOT system (Invitrogen) and blocked in PBS-T (0.1% Tween 20), 5% non-fat milk or BSA in guidance with primary Ab supplier requirements. All primary antibodies were incubated overnight at 4° C. in PBS-T (0.1% Tween 20) in either 5% non-fat milk or BSA, diluted to the following working dilutions: anti E Cadherin (Santa Cruz #sc-21791) 1:500 dilution; anti Vimentin (BD Biosciences #550513) 1:2000 dilution;); anti GAPDH HRP conjugate (Santa Cruz sc-25778) 1:1000 dilution; anti β-Actin (Sigma, A5441) 1:10,000 dilution. […]

[3] = tested on: CFPAC-1 cells; assay: MET/EMT reversion experiment (ligand withdrawal); conditions: ligand 14 days, then removed; morphology and E-cadherin/vimentin immunoblot
Protocol: Cells were cultured in complete medium with and without ligand for 14 days, during which time the media and ligand treatment was replaced every 3-4 days. 3 Days prior to the first time point (Day 14), cells were trypsinised, counted and seeded into plastic 35 mm dishes at appropriate seeding densities for the first 3 collection time points. 3 Days prior to the last of the 3 collection time points, the procedure was repeated for the second 3 collection time points, and so on until all time points were collected. Ligand was removed from all cultures at Day 14. At the time of harvest, cells were harvested as described in the western blotting section above. All samples were micro-centrifuged and stored at −80° C. until the end of the experiment, at which time all samples were processed for western blotting.

[4] = tested on: CFPAC1 cells; assay: 2D immunofluorescence of E-cadherin and vimentin; conditions: cells treated 7 days with ligand, compared to untreated cells
Protocol: Cells were plated on coverslips and stimulated with ligand the following day (day 0). On day 4, medium and ligands were refreshed. After 7 days, the cells were fixed in 4% paraformaldehyde (EMS#15701)/PBS (Gibco #14190) for 10 minutes at room temperature, and then permeabilized in 0.1% Triton X-100 (Sigma #P1379)/PBS for 10 minutes. Cells were blocked in 3% BSA/PBS for one hour and incubated in primary antibody solution (E-cadherin, Santa Cruz #sc21791 and Vimentin, Chemicon #AB5733 in blocking buffer) for two hours at room temperature. Cells were washed in PBS and incubated in secondary antibody (Invitrogen #A11029 and Chemicon #AP194R) for one hour followed by nuclear counterstain TO-PRO3 (Invitrogen #T3605). Coverslips were mounted on slides with Pro-Long Gold antifade reagent (Invitrogen P36934). Images were captured on a Leica DMRXE microcope with SP2 scanner using Leica Confocal Software.

[5] = tested on: CFPAC-1 cells; assay: Cell morphology by light microscopy; conditions: treated 7 days; versus untreated cells that formed colonies
Protocol: The CFPAC1 cell line was cultured in DMEM media (Gibco #11960) supplemented with 10% FBS (Sigma), 2 mM L Glutamine (Gibco), at 37° C., 5% CO2. For 7 day treatments, cells were seeded on tissue culture plastic in complete growth media and allowed to attach overnight at cell densities that would provide approximately 60-80% confluence at end of experiment. Ligand and/or inhibitor was added the following day (Day 0) in complete growth media and incubated at 37° C., 5% CO2. Ligand source and concentrations used are as follows: [1] From R&D systems, SDF-1α (stromal derived factor-1 alpha) at 100 ng/ml, TRANCE (TNF-related activation induced cytokine) at 50 ng/ml, FGF1 (fibroblast growth factor acidic) at 10 ng/ml, FGF2 (fibroblast growth factor basic) at 10 ng/ml, BMP4 (bone morphogenetic protein 4) at 100 ng/ml, BMP7 (bone morphogenetic protein 7) at 100 ng/ml, IGF2 (insulin-like growth factor 2) at 100 ng/ml, OSM (Oncostatin M) at 100 ng/ml, NRG1 (Neuregulin-1) at 50 ng/ml, PDGFaa (Platelet derived growth factor a) at 50 ng/ml, PDGFbb (platelet derive growth factor b) at 30 ng/ml, Ang2 (Angiopoeitin 2) at 400 ng/ml, amphiregulin at 100 ng/ml, HMGB 1 (Human high-mobility group box 1 protein) at 50 ng/ml; [2] […]

“HGF: Hepatocyte Growth Factor from Peprotech, used at 100 ng/ml” was tested, and the “Effect on doubling time” value [1] was “did not increase the doubling time”, the “Induction of EMT (E-cadherin down, vimentin up)” value [2] was “most complete EMT” and the “Reversal of EMT upon withdrawal of ligand” value [3] was “can be reversed”. The “E-cadherin and vimentin staining” value [4] was “strong vimentin staining with no E-cadherin” and the Cell morphology [5] was “less compact with more elongated cell morphology”.
